In patent publication US6828473B2, “Modulation of PDE11A activity” (Pfizer Inc., priority 2000, dated 2004):
Where a name gives a salt, the structure may show the parent alone.

Legend:
[1] = tested on: pre-ejaculated epididymal murine spermatozoa; assay: Sperm capacitation measured with chlorotetracycline (CTC); assay type: cell-based, mouse; conditions: for number of capacitated sperm: P<0.001
Experimental: The extent of capacitation was measured using chlorotetracycline (CTC) and the degree of capacitation was assessed in control and adenosine-5′-triphosphate (ATP)-treated samples. All data is expressed as mean+s.e.mean, n=3, ***=P<0.001, Student's t-test).
Sperm suspensions were prepared by releasing the contents of mouse epididymides from 3 PDE11 knockout (KO) and 3 wild type (WT) mice into Tyrodes media. The extent of capacitation was measured using chlorotetracycline (CTC), 750 μM for 15 min at 37° C. The patterns of CTC fluorescence were observed under microscopy (Reference: Fraser, L. R. & Herod, J. E. Expression of capacitation-dependent changes in chlortetracycline fluorescence patterns in mouse spermatozoa requires a suitable glycolysable substrate. J. Reprod. Fert., 1990; 88(2): 611-21). Patterns reflected the functional state of spermatozoa, i.e. capacitated, uncapacitated and acrosome loss.

recombinant human PDE7 = assay: PDE inhibition SPA assay, PDE7; assay type: biochemical; conditions: geometric mean of at least 3 determinations; substrate <= 1/3 Km
[2] = molecular target: T1, PDE6 isolated from bovine retina (Bos taurus, UniProt P11541+P23439); assay: PDE inhibition SPA assay, PDE6; assay type: biochemical
T1 construct: PDE6 was isolated from bovine retina; from tissue; host or cells: bovine retina
T1 sequence (P11541 2-856 limits assumed): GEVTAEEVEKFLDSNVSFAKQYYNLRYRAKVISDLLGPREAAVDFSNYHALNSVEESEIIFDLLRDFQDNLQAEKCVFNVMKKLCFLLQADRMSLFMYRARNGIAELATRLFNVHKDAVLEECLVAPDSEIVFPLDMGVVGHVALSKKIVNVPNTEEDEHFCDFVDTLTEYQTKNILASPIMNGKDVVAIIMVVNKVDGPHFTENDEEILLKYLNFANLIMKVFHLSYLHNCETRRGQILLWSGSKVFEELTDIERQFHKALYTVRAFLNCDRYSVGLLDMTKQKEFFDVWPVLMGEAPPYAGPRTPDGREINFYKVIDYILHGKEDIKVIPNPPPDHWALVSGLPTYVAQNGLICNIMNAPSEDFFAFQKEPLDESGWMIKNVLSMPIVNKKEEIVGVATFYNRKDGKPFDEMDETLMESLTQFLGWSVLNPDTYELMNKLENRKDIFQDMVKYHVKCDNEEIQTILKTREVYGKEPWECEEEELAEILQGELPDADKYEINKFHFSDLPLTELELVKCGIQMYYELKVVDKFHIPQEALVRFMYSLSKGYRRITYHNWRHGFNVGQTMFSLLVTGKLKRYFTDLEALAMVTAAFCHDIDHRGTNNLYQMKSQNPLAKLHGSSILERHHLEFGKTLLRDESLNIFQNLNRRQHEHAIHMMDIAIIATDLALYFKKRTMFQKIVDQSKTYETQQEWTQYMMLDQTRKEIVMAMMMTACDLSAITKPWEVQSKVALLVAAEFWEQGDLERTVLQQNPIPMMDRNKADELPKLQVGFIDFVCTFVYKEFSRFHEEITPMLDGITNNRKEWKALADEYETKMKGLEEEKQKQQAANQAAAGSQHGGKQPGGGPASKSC
T1 sequence (P23439 2-850 limits assumed): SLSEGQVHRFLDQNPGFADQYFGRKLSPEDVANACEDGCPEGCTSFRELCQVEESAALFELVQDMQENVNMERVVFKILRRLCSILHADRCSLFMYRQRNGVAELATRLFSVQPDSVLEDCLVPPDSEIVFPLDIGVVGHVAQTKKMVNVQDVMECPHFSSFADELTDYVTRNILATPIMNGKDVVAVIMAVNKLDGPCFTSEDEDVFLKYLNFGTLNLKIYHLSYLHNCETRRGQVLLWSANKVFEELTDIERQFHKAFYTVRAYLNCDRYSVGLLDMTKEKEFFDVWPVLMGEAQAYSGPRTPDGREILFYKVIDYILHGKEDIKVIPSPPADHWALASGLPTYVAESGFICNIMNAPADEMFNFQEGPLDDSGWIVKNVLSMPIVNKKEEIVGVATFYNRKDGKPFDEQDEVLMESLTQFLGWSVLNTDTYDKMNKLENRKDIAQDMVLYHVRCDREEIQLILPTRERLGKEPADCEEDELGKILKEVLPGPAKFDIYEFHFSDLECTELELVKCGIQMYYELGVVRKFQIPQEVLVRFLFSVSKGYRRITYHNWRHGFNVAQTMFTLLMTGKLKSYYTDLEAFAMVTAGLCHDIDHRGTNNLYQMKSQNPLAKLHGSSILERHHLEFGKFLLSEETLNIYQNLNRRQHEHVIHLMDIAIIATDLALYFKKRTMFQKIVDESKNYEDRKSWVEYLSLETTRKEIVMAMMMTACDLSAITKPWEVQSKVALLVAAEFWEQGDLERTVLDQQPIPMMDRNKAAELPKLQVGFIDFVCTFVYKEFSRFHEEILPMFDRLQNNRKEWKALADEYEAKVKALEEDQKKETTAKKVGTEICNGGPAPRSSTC

recombinant human PDE8 = assay: PDE inhibition SPA assay, PDE8; assay type: biochemical; conditions: geometric mean of at least 3 determinations; substrate <= 1/3 Km

IC50 (recombinant human PDE7) | IC50 [2] | IC50 (recombinant human PDE8) | Structure (SMILES) | number of capacitated murine spermatozoa ([1]; 1 hr incubation, both PDE11 KO and WT samples, concentration not given) | number of capacitated sperm ([1]; ATP 1.0 mM, spermatozoa obtained from PDE11 KO mice only) | number of capacitated sperm ([1]; ATP 2.5 mM, 1 hr incubation, all murine spermatozoa samples (PDE11 KO and WT))
 |  |  | Nc1ncnc2c1ncn2[C@@H]1O[C@H](COP(=O)(O)OP(=O)(O)OP(=O)(O)O)[C@@H](O)[C@H]1O [ATP, adenosine-5′-triphosphate] | significantly increased | significantly increased | significantly increased
> 100 µM | 4.7 µM | > 100 µM | O=C(O)C1CCN(c2nc(NCc3ccc4c(c3)OCO4)c3cc(Cl)ccc3n2)CC1 [UK-227,786 (E4021), 1-[4-[(1,3-benzodioxol-5-ylmethyl)amino]-6-chloro-2-quinazolinyl]-4-piperidinecarboxylic acid, monohydrochloride] |  |  | 
> 100 µM |  | > 100 µM | CN1CC(=O)N2[C@H](c3ccc4c(c3)OCO4)c3[nH]c4ccccc4c3C[C@@H]2C1=O [UK-336,017 (IC351), (6R, 12aR)-6-(1,3-benzodioxol-5-yl)-2,3,6,7,12,12a-hexahydro-2-methyl-pyrazino[1′,2′:1,6]pyrido[3,4-b]indole-1,4-dione] |  |  | 

Structure (SMILES) | IC50 (recombinant human PDE7) | IC50 [2] | IC50 (recombinant human PDE8) | number of capacitated murine spermatozoa ([1]; 1 hr incubation, both PDE11 KO and WT samples, concentration not given) | number of capacitated sperm ([1]; ATP 1.0 mM, spermatozoa obtained from PDE11 KO mice only) | number of capacitated sperm ([1]; ATP 2.5 mM, 1 hr incubation, all murine spermatozoa samples (PDE11 KO and WT))
CCCc1nn(C)c2c(=O)[nH]c(-c3cc(S(=O)(=O)N4CCN(C)CC4)ccc3OCC)nc12 [Sildenafil, sildenafil] | 19.7 µM |  |  |  |  | 
